Several values for one entry are separate records, joined by “and”; a condition that tells them apart may be missing. Identical values can stand only once.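 Cultured in 96-well plates, cells were exposed to test compound for 48 hours across five concentrations. Here, GI50 denotes the concentration required for 50% inhibition of growth. TGI marks complete inhibition of growth.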 Bounds are passed on as bounds.

Among the data in PubChem BioAssay (NCI) are TGI and GI50 values, retold here.

Test systems include 786-0 renal; HCT-116 colon; UACC-257 melanoma; HOP-62 NSCLC; NCI-H460 lung; SK-MEL-28 melanoma; A498 renal; MALME-3M melanoma; A549 NSCLC; IGROV1 ovarian; SK-OV-3 ovarian; OVCAR-5 ovarian.
Common to all, as to test: NCI-60 cell line screen, 48 h

On to `O=[N+]([O-])/C(C(Cl)=C(Cl)Cl)=C(/Sc1ccccc1)N1CCOCC1`, for which the TGI in the assay with 786-0 renal was determined as 4.51 µM; with HCT-116 colon, 3.27 µM; with UACC-257 melanoma, 23.6 µM; in the assay on HOP-62 NSCLC, 33.5 µM; in the assay with NCI-H460 lung, 27.1 µM; in the assay on SK-MEL-28 melanoma, 17.6 µM. Besides, the TGI with A498 renal stood at 28.1 µM; with MALME-3M melanoma it was 18.2 µM; in the assay with A549 NSCLC it was 41.7 µM; with IGROV1 ovarian it was 11.1 µM; in the assay with SK-OV-3 ovarian, 79.8 µM; with OVCAR-5 ovarian, 31 µM.

On to `COc1ccc(S(=O)Cc2cc(OC)ccc2OC)cc1` (stereo not given), for which the TGI in the assay with 786-0 renal, in the assay on HCT-116 colon, with UACC-257 melanoma, in the assay on HOP-62 NSCLC, with NCI-H460 lung and with SK-MEL-28 melanoma was over 100 µM throughout. For the same compound, the TGI in the assay with A498 renal, with MALME-3M melanoma, with A549 NSCLC, in the assay with IGROV1 ovarian, in the assay on SK-OV-3 ovarian and with OVCAR-5 ovarian was over 100 µM each time.

Consider `O=[N+]([O-])c1cccc2nc3ccccc3c(NCCNCCO)c12`, for which the TGI is 0.0259 µM and 0.121 µM in the assay on 786-0 renal; 0.107 µM in the assay on HCT-116 colon; 0.034 µM and 0.0325 µM in the assay on UACC-257 melanoma; 0.0799 µM and 0.0174 µM with HOP-62 NSCLC; 0.108 µM in the assay on NCI-H460 lung; 0.177 µM and 0.202 µM in the assay with SK-MEL-28 melanoma. Moreover, the TGI in the assay with A498 renal is 0.0264 µM; in the assay with MALME-3M melanoma, 0.0216 µM and 0.0317 µM; with A549 NSCLC it was 0.145 µM and 0.144 µM; with IGROV1 ovarian, 0.0233 µM and 0.0569 µM; in the assay on SK-OV-3 ovarian, 0.293 µM and 0.377 µM; with OVCAR-5 ovarian, 0.088 µM and 0.0672 µM. Moreover, the figures for the GI50 in the assay on UACC-257 melanoma and in the assay with SK-MEL-28 melanoma were 0.0126 µM and 0.0239 µM, respectively.

With `C/C=C/[C@@H]1O[C@H](CC#C[Si](C)(C)C)[C@@]2(C=O)C(C)=CC[C@H](C(C)C)[C@@H]12`, the TGI with 786-0 renal came to 31.3 µM; in the assay with HCT-116 colon, 36.9 µM; in the assay on UACC-257 melanoma, 32.5 µM; in the assay with HOP-62 NSCLC it was 82.7 µM; in the assay on NCI-H460 lung it was 39.8 µM; in the assay on SK-MEL-28 melanoma, 47.8 µM. Besides, the TGI in the assay with A498 renal was 89.6 µM; in the assay with MALME-3M melanoma, 37.2 µM; in the assay on A549 NSCLC, 64.5 µM; with IGROV1 ovarian it was 10.7 µM; in the assay with SK-OV-3 ovarian it was over 100 µM; in the assay on OVCAR-5 ovarian it was 40.2 µM.

`CC(C)(N=NC(C)(C)C1=NCCN1)C1=NCCN1`: the TGI in the assay on 786-0 renal, in the assay with HCT-116 colon, in the assay on UACC-257 melanoma, with HOP-62 NSCLC, in the assay on NCI-H460 lung and in the assay on SK-MEL-28 melanoma was over 100 µM throughout. Further, the TGI in the assay on A498 renal, in the assay on MALME-3M melanoma, in the assay on A549 NSCLC, in the assay with IGROV1 ovarian, in the assay with SK-OV-3 ovarian and with OVCAR-5 ovarian was over 100 µM throughout.

As for `Cc1ccc(NC(=S)NNC(=O)c2cc(-c3ccccc3)nc3ccccc23)cc1C`, the TGI was found to be 33.7 µM with 786-0 renal; 36.9 µM in the assay with HCT-116 colon; 60.1 µM with UACC-257 melanoma; 54.8 µM in the assay with HOP-62 NSCLC; 38.7 µM with NCI-H460 lung; 78.8 µM in the assay on SK-MEL-28 melanoma. Further, the TGI in the assay on A498 renal turned out to be 34.2 µM; in the assay on MALME-3M melanoma, 43.6 µM; with A549 NSCLC it was 43.7 µM; in the assay with IGROV1 ovarian it was 63.6 µM; in the assay on SK-OV-3 ovarian it was 32.9 µM; in the assay on OVCAR-5 ovarian, 76.9 µM.

As for `O/N=C1\CC2(N3CCOCC3)CCC1(Cc1ccccc1)CC2`, the TGI in the assay on 786-0 renal was 41.9 µM; in the assay with HCT-116 colon it was 90.6 µM; in the assay with UACC-257 melanoma, over 100 µM; in the assay on HOP-62 NSCLC, 47.8 µM; in the assay on NCI-H460 lung, over 100 µM; in the assay with SK-MEL-28 melanoma, over 100 µM. Further, the TGI in the assay with A498 renal is 88.9 µM; in the assay with MALME-3M melanoma it was over 100 µM; with A549 NSCLC, over 100 µM; in the assay on IGROV1 ovarian it was over 100 µM; in the assay on SK-OV-3 ovarian, 83 µM; in the assay on OVCAR-5 ovarian, over 100 µM.

With `CC1CSc2nc3[nH]c(=S)[nH]c3c(=O)n2C1` (stereo not given), the TGI with 786-0 renal, with HCT-116 colon, with UACC-257 melanoma, in the assay on HOP-62 NSCLC, in the assay on NCI-H460 lung and in the assay on SK-MEL-28 melanoma was over 100 µM in each case. In addition, the TGI in the assay with A498 renal, in the assay with MALME-3M melanoma, with A549 NSCLC, in the assay with IGROV1 ovarian, with SK-OV-3 ovarian and in the assay with OVCAR-5 ovarian was over 100 µM each time.

For the compound `C=CC1(CBr)CCC(C(C)(C)Br)O1` (stereo not given), the TGI in the assay with 786-0 renal is 6.56 µM; in the assay on HCT-116 colon, 18.5 µM; in the assay with UACC-257 melanoma, 28.9 µM; with HOP-62 NSCLC it was 30 µM; in the assay on NCI-H460 lung it was 27.7 µM; in the assay on SK-MEL-28 melanoma, 23.9 µM. The TGI with A498 renal is 33.5 µM; with MALME-3M melanoma it was 27.8 µM; in the assay on A549 NSCLC, 33.9 µM; in the assay with IGROV1 ovarian it was 22.7 µM; in the assay on SK-OV-3 ovarian, 29 µM; in the assay on OVCAR-5 ovarian, 27.9 µM.

For `O=C(c1ccco1)N1CCN(C(=O)c2ccco2)C1=S`, the TGI was 12.8 µM in the assay with 786-0 renal; 23.2 µM in the assay with HCT-116 colon; 23.3 µM in the assay with UACC-257 melanoma; 33.1 µM in the assay on HOP-62 NSCLC; 30 µM in the assay on NCI-H460 lung; 22.8 µM in the assay on SK-MEL-28 melanoma. In addition, the TGI in the assay on A498 renal is 35.8 µM; in the assay on MALME-3M melanoma, 23 µM; in the assay on A549 NSCLC, 35.5 µM; with IGROV1 ovarian, 27.4 µM; in the assay with SK-OV-3 ovarian it was 40.8 µM; with OVCAR-5 ovarian it was 39.8 µM. Further, the GI50 in the assay with A498 renal is 16.6 µM.

As for `C/C(=N/NC(=S)N(Cc1ccccn1)Cc1ccccn1)c1cnccn1`, the TGI is 7.97 µM with 786-0 renal; 14.2 µM with HCT-116 colon; 8.61 µM in the assay on UACC-257 melanoma; 14.6 µM in the assay with HOP-62 NSCLC; over 33.1 µM in the assay on NCI-H460 lung; over 61.8 µM in the assay with SK-MEL-28 melanoma. Also, the TGI was over 100 µM in the assay on A498 renal; 7.53 µM in the assay with MALME-3M melanoma; 14.5 µM in the assay with A549 NSCLC; 2.78 µM with IGROV1 ovarian; 4.27 µM with SK-OV-3 ovarian; 32.6 µM in the assay with OVCAR-5 ovarian.
